Patent EP0745599A2, “1-(3-Heterocyclylphenyl)-s-triazine-2,4,6-oxo or thiotrione herbicidal agents” (American Cyanamid Company, priority 1995, dated 1996)

Key:
Format in all cases: in vivo
Settings in all cases: rated four to five weeks after treatment
[1] = system: IPOMOEA SPP.; experiment: Preemergence herbicidal evaluation, IPOSS (Morningglory Spp.)
Excerpt: (§1) Results of herbicide evaluation are expressed on a rating scale (0-9). The scale is based upon a visual observation of plant stand, vigor, malformation, size, chlorosis and overall plant appearance as compared with a control.
(§2) The preemergence herbicidal activity of the test compounds of the present invention is exemplified by the following tests in which the seeds of a variety of monocotyledonous and dicotyledonous plants are separately mixed with potting soil and planted on top of approximately one inch of soil in separate pint cups. After planting, the cups are sprayed with the selected aqueous acetone solution containing test compound in sufficient quantity to provide the equivalent of about 0.125 to 0.50 kg per hectare of test compound per cup. The treated cups are then placed on greenhouse benches, watered and cared for in accordance with conventional greenhouse procedures. From four to five weeks after treatment, the tests are terminated and each cup is examined and rated according to the rating system provided in Example 42.

[2] = system: ABUTILON THEOPHRASTI, MEDIC.; experiment: Preemergence herbicidal evaluation, ABUTH (Velvetleaf)
Excerpt: as §1, §2

[3] = system: ORYZA SATIVA, L. TEBONNET; experiment: Postemergence herbicidal evaluation, ORYSAT (Rice, Tebonnet)
Description: (§3) In the tests, seedling plants are grown in jiffy flats for about two weeks. The test compounds are dispersed in 50/50 acetone/water mixtures containing 0.5% TWEEN®20, a polyoxyethylene sorbitan monolaurate surfactant of Atlas Chemical Industries, in sufficient quantities to provide the equivalent of about 0.125 kg to 0.500 kg per hectare of active compound when applied to the plants through a spray nozzle operating at 40 psi for a predetermined time. After spraying, the plants are placed on greenhouse benches and are cared for in the usual manner, commensurate with conventional greenhouse practices. From four to five weeks after treatment, the seedling plants are examined and rated according to the rating system set forth below. Where more than one test is involved for a given compound, the data are averaged.
as §1

[4] = system: CHENOPODIUM ALBUM, L.; experiment: Preemergence herbicidal evaluation, CHEAL (Lambsquarters, Common)
Excerpt: as §1, §2

[5] = system: GLYCINE MAX(L)MERR. CV. WILLIAMS; experiment: Preemergence herbicidal evaluation, GLXMAW (Soybean, Williams)
Excerpt: as §1, §2

[6] = system: AMBROSIA ARTEMISIIFOLIA, L.; experiment: Preemergence herbicidal evaluation, AMBEL (Ragweed, Common)
Excerpt: as §1, §2

[7] = system: CASSIA OBTUSIFOLIA, L.; experiment: Postemergence herbicidal evaluation, CASOB (Sicklepod)
Description: as §3, §1

[8] = system: SETARIA VIRIDIS, (L) BEAU; experiment: Postemergence herbicidal evaluation, SETVI (Foxtail, Green)
Description: as §3, §1

[9] = system: ZEA MAYS L.; experiment: Preemergence herbicidal evaluation, ZEAMX (Corn, Field)
Excerpt: as §1, §2

[10] = system: TRITICUM AESTIVUM, CV. APOLLO; experiment: Preemergence herbicidal evaluation, TRZAWO (Wheat, Winter, CV. APOLLO)
Excerpt: as §1, §2

[11] = system: ECHINOCHLOA CRUS-GALLI, (L) BEAU; experiment: Preemergence herbicidal evaluation, ECHCG (Barnyardgrass)
Excerpt: as §1, §2

[12] = system: ORYZA SATIVA, L. TEBONNET; experiment: Preemergence herbicidal evaluation, ORYSAT (Rice, Tebonnet)
Excerpt: as §1, §2

[13] = system: GALIUM APARINE; experiment: Preemergence herbicidal evaluation, GALAP (Galium)
Excerpt: as §1, §2

[14] = system: ECHINOCHLOA CRUS-GALLI, (L) BEAU; experiment: Postemergence herbicidal evaluation, ECHCG (Barnyardgrass)
Description: as §3, §1

[15] = system: TRITICUM AESTIVUM, CV. APOLLO; experiment: Postemergence herbicidal evaluation, TRZAWO (Wheat, Winter, CV. APOLLO)
Description: as §3, §1

[16] = system: CASSIA OBTUSIFOLIA, L.; experiment: Preemergence herbicidal evaluation, CASOB (Sicklepod)
Excerpt: as §1, §2

[17] = system: SETARIA VIRIDIS, (L) BEAU; experiment: Preemergence herbicidal evaluation, SETVI (Foxtail, Green)
Excerpt: as §1, §2

[18] = system: CHENOPODIUM ALBUM, L.; experiment: Postemergence herbicidal evaluation, CHEAL (Lambsquarters, Common)
Description: as §3, §1

SMILES: CCOC(=O)Cn1c(=O)n(CC(=O)OC(C)(C)C)c(=O)n(-c2ccc(F)c(N3C(=O)C4=C(CCCC4)C3=O)c2)c1=O [Compound 8, 5-[3-(1-Cyclohexene-1,2-dicarboximido)-4-fluorophenyl]dihydro-2,4,6-trioxo-s-tri-azine-1,3(2H,4H)-diacetic acid, 1-tert-butyl, ethyl ester]
- Herbicide rating (0-9) IPOSS ([1]; 0.125 kg/ha): 0.0
- Herbicide rating (0-9) IPOSS ([1]; 0.250 kg/ha): 0.0
- Herbicide rating (0-9) IPOSS ([1]; 0.500 kg/ha): 0.0
- Herbicide rating (0-9) ABUTH ([2]; 0.125 kg/ha): 0.0
- Herbicide rating (0-9) ABUTH ([2]; 0.250 kg/ha): 0.0
- Herbicide rating (0-9) ABUTH ([2]; 0.500 kg/ha): 0.0
- Herbicide rating (0-9) ORYSAT ([3]; 0.125 kg/ha): 1.5
- Herbicide rating (0-9) ORYSAT ([3]; 0.250 kg/ha): 1.5
- Herbicide rating (0-9) ORYSAT ([3]; 0.500 kg/ha): 1.5
- Herbicide rating (0-9) CHEAL ([4]; 0.125 kg/ha): 0.0
- Herbicide rating (0-9) CHEAL ([4]; 0.250 kg/ha): 0.0
- Herbicide rating (0-9) CHEAL ([4]; 0.500 kg/ha): 0.0
- Herbicide rating (0-9) GLXMAW ([5]; 0.125 kg/ha): 0.0
- Herbicide rating (0-9) GLXMAW ([5]; 0.250 kg/ha): 0.0
- Herbicide rating (0-9) GLXMAW ([5]; 0.500 kg/ha): 0.0
- Herbicide rating (0-9) AMBEL ([6]; 0.125 kg/ha): 0.0
- Herbicide rating (0-9) AMBEL ([6]; 0.250 kg/ha): 0.0
- Herbicide rating (0-9) AMBEL ([6]; 0.500 kg/ha): 0.0
- Herbicide rating (0-9) CASOB ([7]; 0.125 kg/ha): 0.0
- Herbicide rating (0-9) CASOB ([7]; 0.250 kg/ha): 0.0
- Herbicide rating (0-9) CASOB ([7]; 0.500 kg/ha): 0.0
- Herbicide rating (0-9) SETVI ([8]; 0.125 kg/ha): 0.0
- Herbicide rating (0-9) SETVI ([8]; 0.250 kg/ha): 0.0
- Herbicide rating (0-9) SETVI ([8]; 0.500 kg/ha): 0.0
- Herbicide rating (0-9) ZEAMX ([9]; 0.125 kg/ha): 0.0
- Herbicide rating (0-9) ZEAMX ([9]; 0.250 kg/ha): 0.0
- Herbicide rating (0-9) ZEAMX ([9]; 0.500 kg/ha): 0.0
- Herbicide rating (0-9) TRZAWO ([10]; 0.125 kg/ha): 0.0
- Herbicide rating (0-9) TRZAWO ([10]; 0.250 kg/ha): 0.0
- Herbicide rating (0-9) TRZAWO ([10]; 0.500 kg/ha): 0.0
- Herbicide rating (0-9) ECHCG ([11]; 0.125 kg/ha): 0.0
- Herbicide rating (0-9) ECHCG ([11]; 0.250 kg/ha): 0.0
- Herbicide rating (0-9) ECHCG ([11]; 0.500 kg/ha): 0.0
- Herbicide rating (0-9) ORYSAT ([12]; 0.125 kg/ha): 0.0
- Herbicide rating (0-9) ORYSAT ([12]; 0.250 kg/ha): 0.0
- Herbicide rating (0-9) ORYSAT ([12]; 0.500 kg/ha): 0.0
- Herbicide rating (0-9) GALAP ([13]; 0.125 kg/ha): 0.0
- Herbicide rating (0-9) GALAP ([13]; 0.250 kg/ha): 0.0
- Herbicide rating (0-9) GALAP ([13]; 0.500 kg/ha): 0.0
- Herbicide rating (0-9) ECHCG ([14]; 0.125 kg/ha): 0.0
- Herbicide rating (0-9) ECHCG ([14]; 0.250 kg/ha): 0.0
- Herbicide rating (0-9) ECHCG ([14]; 0.500 kg/ha): 0.0
- Herbicide rating (0-9) TRZAWO ([15]; 0.125 kg/ha): 0.5
- Herbicide rating (0-9) TRZAWO ([15]; 0.250 kg/ha): 0.5
- Herbicide rating (0-9) TRZAWO ([15]; 0.500 kg/ha): 0.5
- Herbicide rating (0-9) CASOB ([16]; 0.125 kg/ha): 0.0
- Herbicide rating (0-9) CASOB ([16]; 0.250 kg/ha): 0.0
- Herbicide rating (0-9) CASOB ([16]; 0.500 kg/ha): 0.0
- Herbicide rating (0-9) SETVI ([17]; 0.125 kg/ha): 0.0
- Herbicide rating (0-9) SETVI ([17]; 0.250 kg/ha): 0.0
- Herbicide rating (0-9) SETVI ([17]; 0.500 kg/ha): 0.0

SMILES: CC(C)OC(=O)Cn1c(=O)n(C)c(=O)n(-c2cc(N3C(=O)c4cccc(F)c4C3=O)c(F)cc2Cl)c1=O [Compound 11, Isopropyl 3-[2-chloro-4-fluoro-5-(3-fluoro-phthalimido)phenyl]tetrahydro-5-methyl-2,4,6-trioxo-s-triazine-1(2H)-acetate]
- Herbicide rating (0-9) CHEAL ([18]; 0.125 kg/ha): 9.0
- Herbicide rating (0-9) CHEAL ([18]; 0.250 kg/ha): 9.0
- Herbicide rating (0-9) CHEAL ([18]; 0.500 kg/ha): 9.0
- Herbicide rating (0-9) IPOSS ([1]; 0.125 kg/ha): 0.0
- Herbicide rating (0-9) IPOSS ([1]; 0.250 kg/ha): 0.0
- Herbicide rating (0-9) IPOSS ([1]; 0.500 kg/ha): 0.0
- Herbicide rating (0-9) CHEAL ([4]; 0.125 kg/ha): 9.0
- Herbicide rating (0-9) CHEAL ([4]; 0.250 kg/ha): 9.0
- Herbicide rating (0-9) CHEAL ([4]; 0.500 kg/ha): 9.0
- Herbicide rating (0-9) GLXMAW ([5]; 0.125 kg/ha): 0.0
- Herbicide rating (0-9) GLXMAW ([5]; 0.250 kg/ha): 0.0
- Herbicide rating (0-9) GLXMAW ([5]; 0.500 kg/ha): 0.0
- Herbicide rating (0-9) AMBEL ([6]; 0.125 kg/ha): 0.0
- Herbicide rating (0-9) AMBEL ([6]; 0.250 kg/ha): 0.0
- Herbicide rating (0-9) AMBEL ([6]; 0.500 kg/ha): 0.0
- Herbicide rating (0-9) ZEAMX ([9]; 0.125 kg/ha): 0.0
- Herbicide rating (0-9) ZEAMX ([9]; 0.250 kg/ha): 0.0
- Herbicide rating (0-9) ZEAMX ([9]; 0.500 kg/ha): 0.0
- Herbicide rating (0-9) TRZAWO ([10]; 0.125 kg/ha): 0.0
- Herbicide rating (0-9) TRZAWO ([10]; 0.250 kg/ha): 0.0
- Herbicide rating (0-9) TRZAWO ([10]; 0.500 kg/ha): 0.0
- Herbicide rating (0-9) ECHCG ([11]; 0.125 kg/ha): 0.0
- Herbicide rating (0-9) ECHCG ([11]; 0.250 kg/ha): 0.0
- Herbicide rating (0-9) ECHCG ([11]; 0.500 kg/ha): 0.0
- Herbicide rating (0-9) ORYSAT ([12]; 0.125 kg/ha): 0.0
- Herbicide rating (0-9) ORYSAT ([12]; 0.250 kg/ha): 0.0
- Herbicide rating (0-9) ORYSAT ([12]; 0.500 kg/ha): 0.0
- Herbicide rating (0-9) ECHCG ([14]; 0.125 kg/ha): 3.0
- Herbicide rating (0-9) ECHCG ([14]; 0.250 kg/ha): 3.0
- Herbicide rating (0-9) ECHCG ([14]; 0.500 kg/ha): 3.0
- Herbicide rating (0-9) CASOB ([16]; 0.125 kg/ha): 0.0
- Herbicide rating (0-9) CASOB ([16]; 0.250 kg/ha): 0.0
- Herbicide rating (0-9) CASOB ([16]; 0.500 kg/ha): 0.0
- Herbicide rating (0-9) SETVI ([17]; 0.125 kg/ha): 0.0
- Herbicide rating (0-9) SETVI ([17]; 0.250 kg/ha): 0.0
- Herbicide rating (0-9) SETVI ([17]; 0.500 kg/ha): 0.0
